From patent US9394261B2, “Aryl amine substituted pyrimidine and quinazoline and their use as anticancer drugs” (National Yang-Ming University, priority 2012, dated 2016)
pIC50: −log10 of the molar value. “Also recorded” adds a separate entry of the source.

Experiments:
CIP2A [1] = assay: western blot of CIP2A expression in PLC/PRF/5 cells; format: cell-based; conditions: 10 μM, 48 hours (FIG. 8)
Description: PLC/PRF/5 cells were exposed to compounds 88, 95 and 96 at various doses (5 and 10 μM) for 48 hours. Total lysates were subjected to CIP2A protein analysis by western blot. Actin was used as a loading control.

PLC5 cell lines = assay: MTT assay, growth inhibition of PLC5 cells; format: cell-based
Description: (§1) The effect of individual test compounds on cell viability was assessed by using the MTT in 6 replicates. Sk-Hep-1 cells were seeded and incubated in 96-well, flat-bottomed plates for 24 hours, and were exposed to various concentrations of test compounds dissolved in DMSO (final concentration, 0.1%) for 48 hours. Controls received DMSO vehicle at a concentration equal to that in drug-treated cells. The medium was removed, replaced by 200 μL of 0.5 mg/mL MTT in 10% fetal bovine serum containing DMEM (Dulbecco's Modified Eagle Medium), and cells were incubated in the carbon dioxide incubator at 37° C. for 2 hours. Supernatants were removed from the wells and the reduced MTT dye was solubilized in 100 μL/well DMSO. Absorbance at 570 nm was determined on a plate reader.
(§2) Next, compounds 19, and 34-36 were screened against a panel of Hep3B cell lines for growth-inhibitory activities. […] Compounds 87-90, 95 and 96 were screened against a panel of PLC5 cell lines for growth-inhibitory activities.

Hep3B cell lines = assay: MTT assay, growth inhibition of Hep3B cells; format: cell-based; conditions: Homo sapiens
Description: as §1, §2

PLC5 xenograft tumor = PLC5 xenograft tumor growth in nude mice; conditions: erlotinib 50 mg/kg/day; for effect on PLC5 tumor growth, in words: p.o. daily for 3 weeks, compounds 20 mg/kg/day (FIG. 6A-6B)
Description: (§4) The mice were housed in groups and maintained under standard laboratory conditions on a 12-hour light-dark cycle. They were given access to sterilized food and water ad libitum. All experimental procedures using these mice were performed in accordance with protocols approved by the Institutional Laboratory Animal Care and Use Committee of National Taiwan University. Each mouse was inoculated s.c. in the dorsal flank with 1×10^6 HCC cells suspended in 0.1 ml of serum-free medium containing 50% Matrigel (BD Biosciences, Bedford, Mass.). […] Controls received vehicle.
(§5) Tumor growth data points are reported as mean tumor volume±SE.

EGFR [2] = target: T1, EGFR (Homo sapiens, UniProt P00533, DEL746-750); assay: western blot of EGFR phosphorylation in PC9 cells; format: cell-based
T1 construct: endogenous in cells; host or cells: PC9 cells
T1 sequence (P00533 with tags, fused parts or gaps DEL746-750): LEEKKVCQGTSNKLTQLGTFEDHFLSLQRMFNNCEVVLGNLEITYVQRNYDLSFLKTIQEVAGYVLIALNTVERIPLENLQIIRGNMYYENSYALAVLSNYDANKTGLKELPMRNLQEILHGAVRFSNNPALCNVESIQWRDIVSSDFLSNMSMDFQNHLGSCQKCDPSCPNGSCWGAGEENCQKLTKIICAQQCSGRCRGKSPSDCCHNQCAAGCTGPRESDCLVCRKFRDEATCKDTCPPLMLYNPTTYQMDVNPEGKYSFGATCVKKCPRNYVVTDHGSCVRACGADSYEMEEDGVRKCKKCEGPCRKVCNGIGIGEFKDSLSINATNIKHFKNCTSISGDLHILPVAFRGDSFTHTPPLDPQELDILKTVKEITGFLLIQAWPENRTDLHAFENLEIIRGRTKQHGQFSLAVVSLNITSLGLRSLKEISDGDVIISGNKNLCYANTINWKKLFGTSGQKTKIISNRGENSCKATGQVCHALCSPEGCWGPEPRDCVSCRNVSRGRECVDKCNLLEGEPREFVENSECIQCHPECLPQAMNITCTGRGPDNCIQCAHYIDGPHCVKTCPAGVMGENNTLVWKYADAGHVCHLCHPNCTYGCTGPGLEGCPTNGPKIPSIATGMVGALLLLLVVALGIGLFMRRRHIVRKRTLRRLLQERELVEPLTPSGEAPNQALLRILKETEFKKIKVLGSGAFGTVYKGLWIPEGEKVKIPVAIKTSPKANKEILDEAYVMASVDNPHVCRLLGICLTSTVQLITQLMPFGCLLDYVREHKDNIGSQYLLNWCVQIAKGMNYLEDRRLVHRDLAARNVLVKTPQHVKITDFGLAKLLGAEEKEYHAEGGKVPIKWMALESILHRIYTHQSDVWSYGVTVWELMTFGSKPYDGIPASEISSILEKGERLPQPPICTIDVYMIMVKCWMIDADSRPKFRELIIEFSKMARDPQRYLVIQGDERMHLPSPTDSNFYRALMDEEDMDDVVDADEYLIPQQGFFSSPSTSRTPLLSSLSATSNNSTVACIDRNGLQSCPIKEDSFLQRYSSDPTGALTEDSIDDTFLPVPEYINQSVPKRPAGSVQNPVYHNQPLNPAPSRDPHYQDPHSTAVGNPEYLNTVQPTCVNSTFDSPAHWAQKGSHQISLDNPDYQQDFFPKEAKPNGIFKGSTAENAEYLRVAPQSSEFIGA
Description: 40 μg/per lane of cell lysates were analyzed by western blot. The antibodies of actin, EGFR, and p-EGFR were from Cell Signaling (Danvers, Mass.). In FIGS. 1A-1B, actin lines are used to show an internal standard for the loading control in this western blot.

PARP = assay: western blot of PARP cleavage in SK-Hep-1 cells; format: cell-based; conditions: 5 μM, 30 hours (FIG. 4A)
Description: (§3) Next, compounds […], 19, and 22 were used to explore whether downregulation of CIP2A lead to suppression of p-Akt. FIG. 4A is the western blot analysis of the effect of the compounds 4, 19, and 22 on phosphorylation of Akt, PARP and Actin. In this western blot analysis, SK-Hep-1 cells were respectively treated with compounds 4, 19, and 22 at a concentration of 5 μM for 30 hours. […] That is, compound 19 and 22 can substantially increase apoptotic cell death to inhibit cancer growth.

p-Akt = assay: western blot of p-Akt in SK-Hep-1 cells; format: cell-based; conditions: for p-Akt level: SK-Hep-1 cells, 5 μM, 30 hours (FIG. 4A)
Description: as §3
In other words, in the present of okadaic acid, the activation of PP2A by compound 19-incuced CIP2A inactivation is blocked.

[3] = system: SK-Hep-1 cell lines (a hepatocellular carcinoma (HCC) cell); assay: MTT assay, growth inhibition of SK-Hep-1 cells; format: cell-based; conditions: for pIC50: SK-Hep-1 cells, 48 hours
Description: MTT assay was used to measure growth inhibition. […] MTT (3-(4,5-dimethylthiazol-2-yl)-2,5-diphenyl tetrazolium bromide) assay was performed as follow.
as §1
The SK-Hep1 cells were then analyzed with western blot assay and MTT assay.

SK-Hep-1 cells = assay: apoptotic cell death by flow cytometry (sub-G1) and cell death detection ELISA; format: cell-based; conditions: 2.5 and 5 μM, 24 h (FIG. 4B-4C)
Description: FIG. 4B is flow cytometry analysis of cell death induced by compounds 4, 19, and 22 at 5 μM, after 24 h of treatment in SK-Hep-1 cells. The apoptotic cells were assessed by flow cytometry (sub-G1). After Sk-Hep-1 cells were treated with compounds 4, 19, and 22, Sk-Hep-1 cells were trypsinized, collected by centrifugation and resuspended in PBS. After centrifugation, the cells were washed in PBS and resuspended in […] (PI) staining solution. Specimens were incubated in the dark for 30 min at 37° C. and then analyzed with an EPICS Profile II flow cytometer (Coulter Corp., Hialeah, Fla.). All experiments were performed in triplicate
FIG. 4C is ELISA analysis of cell death to analyze effects of compounds 4, 19, and 22 on DNA fragmentation in SK-Hep-1 cells. The effect of compounds 4, 19 and 22 on cell viability was assessed by a cell death detection ELISA kit (Roche Applied Science, Mannheim, Germany). SK-Hep-1 cells were treated with compounds 4 and 19 at 22 at 2.5 and 5 μM for 24 h. The cells were collected and assayed according to the standard protocol provided by the manufacturer.

CIP2A [4] = assay: western blot of CIP2A expression in SK-Hep1 cells; format: cell-based; conditions: SK-Hep-1 cells, 5 μM, 30 hours (FIG. 4A)
Description: Accordingly, the pyrimidine and quinazoline derivatives above were screened by using western blot analysis for expression of CIP2A in SK-Hep1 cells. Before the western blot analysis, the SK-Hep-1 cells were maintained in DMEM supplemented with 10% FBS, 100 units/mL penicillin G, 100 μg/mL streptomycin sulfate and 25 μg/mL amphotericin B in a 37° C. humidified incubator in an atmosphere of 5% CO2 in air. In this western blot analysis, SK-Hep1 cells were respectively treated with compounds 1-24 at a concentration of 20 μM for 24 hours. In FIG. 2, the mono-substituted pyrimidine derivatives (compounds 1-5) have no appreciable change in CIP2A expression.
Cell viability, measured by MTT assay, and CIP2A expressions, analyzed by western blot, in response to compound 19 or erlotinib treatment in SK-Hep1 cell line were analyzed. SK-Hep-1 cells were treated with erlotinib and compound 19 at 2.5 and 5 μM for 24 h, respectively. The SK-Hep1 cells were then analyzed with western blot assay and MTT assay.
as §3

Huh-7 xenograft tumor = Huh-7 xenograft tumor growth in nude mice; conditions: erlotinib 50 mg/kg/day
Description: as §4, §5

EGFR [5] = target: EGFR (Homo sapiens, UniProt P00533); assay: western blot of EGFR phosphorylation in H358 cells; conditions: 1 and 5 μM, 24 hours (FIG. 1C)
Chain of EGFR (Homo sapiens, UniProt P00533) (P00533 25-1210): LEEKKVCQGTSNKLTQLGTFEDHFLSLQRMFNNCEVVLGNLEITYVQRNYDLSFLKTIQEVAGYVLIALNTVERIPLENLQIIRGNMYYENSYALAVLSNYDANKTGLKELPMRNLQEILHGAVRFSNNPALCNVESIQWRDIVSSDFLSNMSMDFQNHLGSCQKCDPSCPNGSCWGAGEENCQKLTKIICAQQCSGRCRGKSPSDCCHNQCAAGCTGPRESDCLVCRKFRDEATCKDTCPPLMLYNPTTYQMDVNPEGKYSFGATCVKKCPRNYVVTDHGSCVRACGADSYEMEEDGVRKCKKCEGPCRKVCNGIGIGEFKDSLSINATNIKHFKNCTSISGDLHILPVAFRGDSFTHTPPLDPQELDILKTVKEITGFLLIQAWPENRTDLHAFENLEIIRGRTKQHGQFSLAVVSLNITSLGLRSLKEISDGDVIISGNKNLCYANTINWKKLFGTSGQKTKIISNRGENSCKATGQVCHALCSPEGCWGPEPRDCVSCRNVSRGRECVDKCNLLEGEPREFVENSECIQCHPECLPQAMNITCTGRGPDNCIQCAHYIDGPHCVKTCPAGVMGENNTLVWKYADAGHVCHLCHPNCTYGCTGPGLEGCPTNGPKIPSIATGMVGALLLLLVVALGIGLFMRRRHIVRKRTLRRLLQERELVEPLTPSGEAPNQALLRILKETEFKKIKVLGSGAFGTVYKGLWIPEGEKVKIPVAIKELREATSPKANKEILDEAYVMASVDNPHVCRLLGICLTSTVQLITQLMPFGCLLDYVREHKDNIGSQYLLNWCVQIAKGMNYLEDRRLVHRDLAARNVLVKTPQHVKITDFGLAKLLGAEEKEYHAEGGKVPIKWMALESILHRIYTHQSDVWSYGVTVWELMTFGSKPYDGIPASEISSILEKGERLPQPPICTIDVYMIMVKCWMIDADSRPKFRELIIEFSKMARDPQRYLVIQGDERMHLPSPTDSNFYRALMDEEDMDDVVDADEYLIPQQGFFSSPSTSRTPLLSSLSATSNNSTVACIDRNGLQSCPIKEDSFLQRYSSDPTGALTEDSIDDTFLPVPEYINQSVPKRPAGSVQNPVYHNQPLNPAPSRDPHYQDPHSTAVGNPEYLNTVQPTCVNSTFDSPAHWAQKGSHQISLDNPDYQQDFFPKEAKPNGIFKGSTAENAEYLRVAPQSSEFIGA

[6] = p.o. daily, after 21 days of treatment, compounds 8 and 19 20 mg/kg/day

C#Cc1cccc(Nc2nc(Nc3ccc(Oc4ccc(Cl)c(Cl)c4)cc3)nc3cc(OC)c(OC)cc23)c1 [Compound 95, N^2-(4-(3,4-dichlorophenoxyl)phenyl)-N^4-(3-ethynylphenyl)-6,7-dimethoxyquinazoline-2,4-diamine]
inhibition of CIP2A expression (CIP2A [1]): high degree of repression of CIP2A | pIC50 (PLC5 cell lines; PLC5 cells): 6.02

C#Cc1cccc(Nc2nc(Nc3cccc(NC(=O)c4cccc(C(F)(F)F)c4)c3)nc3cc(OC)c(OC)cc23)c1 [Compound 36, N-(3-(4-(3-ethynylphenylamino)-6,7-dimethoxyquinazolin-2-ylamino)phenyl)-3-(trifluoromethyl)benzamide]
pIC50 (Hep3B cell lines): 5.47

C#Cc1cccc(Nc2nc(Nc3cccc(NC(=O)c4cc(C(F)(F)F)cc(C(F)(F)F)c4)c3)nc3cc(OC)c(OC)cc23)c1 [Compound 35, N-(3-(4-(3-ethynylphenylamino)-6,7-dimethoxyquinazolin-2-ylamino)phenyl)-3,5-bis(trifluoromethyl)benzamide]
pIC50 (Hep3B cell lines): 5.49

C#Cc1cccc(Nc2nc(NCc3ccccc3)nc3cc(OC)c(OC)cc23)c1 [Compound 22, N^2-Benzyl-N^4-(3-ethynylphenyl)-6,7-dimethoxy quinazoline-2,4-diamine]
effect on PLC5 tumor growth, in words (PLC5 xenograft tumor): significantly reducing the growth of tumor | EGFR phosphorylation inhibition (western blot) (EGFR [2]; PC9 cells, 2 μM, 24 h (FIG. 3A)): no inhibitory effect on EGFR kinase | PARP cleavage (PARP): inducing PARP cleavage | p-Akt level (p-Akt): reducing p-Akt level; also recorded: reduced Akt phosphorylation | pIC50 [3]: 5.55 | cell apoptosis (sub-G1 flow cytometry, DNA fragmentation ELISA) (SK-Hep-1 cells): induced cell apoptosis | inhibiting CIP2A expression (CIP2A [4]): inhibiting CIP2A expression; also recorded: most potent inhibition of CIP2A expression

C#Cc1cccc(Nc2nc(Nc3ccc(Cl)c(Oc4ccc(C#N)c(Cl)c4)c3)nc3cc(OC)c(OC)cc23)c1 [Compound 88, 2-chloro-4-(2-chloro-5-((4-((3-ethynylphenyl)amino)-6,7-dimethoxyquinazolin-2-yl)amino)phenoxy)benzonitrile]
inhibition of CIP2A expression (CIP2A [1]): high degree of repression of CIP2A | pIC50 (PLC5 cell lines; PLC5, PLC5 cells): 4.89

C#Cc1cccc(Nc2nc(Nc3ccc(Cl)c(Oc4ccc(C#N)c(C)c4)c3)nc3cc(OC)c(OC)cc23)c1 [Compound 89, 4-(2-chloro-5-((4-((3-ethynylphenyl)amino)-6,7-dimethoxyquinazolin-2-yl)amino)phenoxy)-2-methylbenzonitrile]
pIC50 (PLC5 cell lines; PLC5, PLC5 cells): 4.69

C=C1[C@@H](O)[C@@H]2O[C@]3(CC[C@H](/C=C/[C@@H](C)[C@@H]4CC(C)=C[C@@]5(O[C@H](C[C@@](C)(O)C(=O)O)CC[C@H]5O)O4)O3)CC[C@H]2O[C@@H]1[C@@H](O)C[C@H](C)[C@H]1O[C@@]2(CCCCO2)CC[C@H]1C [okadaic acid, reference compound]
p-Akt level in compound 19 treated cells (p-Akt; SK-Hep-1 cells treated with compound 19 (FIG. 5B)): reversed p-Akt level

C#Cc1cccc(Nc2nc(Cl)nc3cc(OC)c(OC)cc23)c1 [Compound 8, 2-Chloro-N-(3-ethynylphenyl)-6,7-dimethoxyquinazoline-4-amine]
effect on PLC5 tumor growth, in words (PLC5 xenograft tumor): significantly reduced the growth of tumor | tumor inhibition, PLC5 cell (PLC5 xenograft tumor; [6]): 45.7% | EGFR kinase inhibition (p-EGFR western blot) (EGFR [2]; PC9 cells, 0.5, 1, 2, 4, and 8 μM, 24 hours (FIG. 1A-1B)): devoid of EGFR kinase inhibition | pIC50 ([3]; Homo sapiens, SK-HEP1, 48 h): > 5.00 | effect on Huh-7 tumor growth, in words (Huh-7 xenograft tumor; p.o. daily for 3 weeks, compounds 20 mg/kg/day (FIG. 7A-7B)): better inhibitory effect on Huh-7 tumors than erlotinib | tumor inhibition, Huh7 cell (Huh-7 xenograft tumor; [6]): 40.3% | EGFR phosphorylation inhibition (western blot) (EGFR [5]): devoid of EGFR kinase inhibition

C#Cc1cccc(Nc2nc(Nc3ccc(Oc4ccc(Cl)cc4)cc3)nc3cc(OC)c(OC)cc23)c1 [Compound 96, N^2-(4-(4-chlorophenoxyl)phenyl)-N^4-(3-ethynylphenyl)-6,7-dimethoxyquinazoline-2,4-diamine]
pIC50 (PLC5 cell lines; PLC5, PLC5 cells): 6.21

C#Cc1cccc(Nc2nc(Nc3cccc(NCc4ccccc4)c3)nc3cc(OC)c(OC)cc23)c1 [Compound 34, N^2-(3-(benzylamino)phenyl)-N^4-(3-ethynylphenyl)-6,7-dimethoxyquinazoline-2,4-diamine]
pIC50 (Hep3B cell lines): 5.47

Clc1nccc(Nc2ccc(Oc3ccccc3)cc2)n1 [Compound 4, 2-Chloro-N-(4-phenoxyphenyl)pyrimidin-4-amine]
PARP cleavage (PARP): no activity | p-Akt level (p-Akt): no activity | pIC50 ([3]; Homo sapiens, SK-HEP1, 48 h): < 4.40 | growth-inhibitory activity (MTT), in words ([3]; SK-Hep-1 (HCC) cells): no activity in either assay | inhibiting CIP2A expression (CIP2A [4]): no activity
